{"source": "paper PMC8623851", "about": "“The Structural Determinants for α1-Adrenergic/Serotonin Receptors Activity among Phenylpiperazine-Hydantoin Derivatives” (Molecules, 2021)", "origin": "cited, not measured here", "key": {"α1-receptor": {"target": "α1-receptor", "parameters": "method as in PMID 31383628, PMID 29425815", "details": "previously reported arylpiperazine hydantoin derivatives; cited from earlier work"}, "human 5-HT7b receptor": {"target": "human 5-HT7b receptor (Homo sapiens, UniProt P34969)", "sequence (P34969 1-432)": "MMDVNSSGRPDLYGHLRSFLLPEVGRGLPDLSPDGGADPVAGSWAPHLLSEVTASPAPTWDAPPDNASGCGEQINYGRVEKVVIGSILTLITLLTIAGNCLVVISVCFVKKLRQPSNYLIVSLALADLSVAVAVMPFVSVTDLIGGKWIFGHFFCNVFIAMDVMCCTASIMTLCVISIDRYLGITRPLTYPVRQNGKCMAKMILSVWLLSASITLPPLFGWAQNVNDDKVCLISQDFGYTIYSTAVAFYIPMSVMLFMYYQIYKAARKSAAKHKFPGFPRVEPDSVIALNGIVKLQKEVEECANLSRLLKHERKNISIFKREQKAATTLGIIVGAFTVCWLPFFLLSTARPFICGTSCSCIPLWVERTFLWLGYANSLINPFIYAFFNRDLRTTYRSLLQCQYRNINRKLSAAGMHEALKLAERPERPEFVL", "parameters": "expressed in transfected cells; host or cells: HEK-293; method as in PMID 31383628, PMID 29425815", "details": "previously reported arylpiperazine hydantoin derivatives; read-out: Ki 5-HT7; cited from earlier work"}}, "note": "pKi: −log10 of the molar value.", "data": [{"smiles": "COc1ccc(C2(C)NC(=O)N(CC(O)CN3CCN(c4ccccc4OC)CC3)C2=O)cc1", "note": "(centres unmarked) [Compound 3]", "values": [{"measurement": "pKi", "setting": "α1-receptor", "value": 6.28}, {"measurement": "pKi", "setting": "human 5-HT7b receptor", "value": 8.10}]}]}
